The source of these data is PubChem BioAssay AID1259407 (Chemical Carcinogenesis Research Information System (CCRIS), 2018).

Molecules are shown by their SMILES. Active and inactive are the calls of the source. No rule for the calls is given here.

This data set relates to CCRIS mutagenicity, Ames/micronucleus/aberration tests. Kind of data set: CCRIS mutagenicity studies.
The mark [1] stands for this setting: Test System: AMES SALMONELLA TYPHIMURIUM, Strain/Indicator: TA100, Metabolic Activation: NONE, Method: STANDARD PLATE.

As to `COP(=S)(OC)SCN1C(=O)c2ccccc2C1=O`, the mutagenic call is “active; positive” (Test System: AMES SALMONELLA TYPHIMURIUM, Strain/Indicator: TA97, Metabolic Activation: NONE, Method: STANDARD PLATE); “active; positive” (Test System: AMES SALMONELLA TYPHIMURIUM, Strain/Indicator: TA97, Metabolic Activation: RAT, LIVER, S-9, DELOR 103, Method: STANDARD PLATE); “active; positive” (Test System: AMES SALMONELLA TYPHIMURIUM, Strain/Indicator: TA97, Metabolic Activation: RAT, LIVER, S-9, PHENOBARBITAL, Method: STANDARD PLATE); “inactive; negative” (Test System: AMES SALMONELLA TYPHIMURIUM, Strain/Indicator: TA98, Metabolic Activation: NONE, Method: STANDARD PLATE); “inactive; negative” (Test System: AMES SALMONELLA TYPHIMURIUM, Strain/Indicator: TA98, Metabolic Activation: RAT, LIVER, S-9, DELOR 103, Method: STANDARD PLATE); “inactive; negative” (Test System: AMES SALMONELLA TYPHIMURIUM, Strain/Indicator: TA98, Metabolic Activation: RAT, LIVER, S-9, PHENOBARBITAL, Method: STANDARD PLATE). Besides, the mutagenic call is, setting by setting: under setting [1], “active; positive”; (Test System: AMES SALMONELLA TYPHIMURIUM, Strain/Indicator: TA100, Metabolic Activation: RAT, LIVER, S-9, DELOR 103, Method: STANDARD PLATE) “active; positive”; (Test System: AMES SALMONELLA TYPHIMURIUM, Strain/Indicator: TA100, Metabolic Activation: RAT, LIVER, S-9, PHENOBARBITAL, Method: STANDARD PLATE) “active; positive”; (Test System: AMES SALMONELLA TYPHIMURIUM, Strain/Indicator: TA100, Metabolic Activation: S-9 MIX, Method: STANDARD PLATE) “active; positive”; (Test System: AMES SALMONELLA TYPHIMURIUM, Strain/Indicator: TA1535, Metabolic Activation: NONE, Method: STANDARD PLATE) “inactive; negative”; (Test System: AMES SALMONELLA TYPHIMURIUM, Strain/Indicator: TA1535, Metabolic Activation: RAT, LIVER, S-9, DELOR 103, Method: STANDARD PLATE) “inactive; negative”. Further, the mutagenic call (Test System: AMES SALMONELLA TYPHIMURIUM, Strain/Indicator: TA1535, Metabolic Activation: RAT, LIVER, S-9, PHENOBARBITAL, Method: STANDARD PLATE) is “inactive; negative”; the mutagenic call (Test System: AMES SALMONELLA TYPHIMURIUM, Strain/Indicator: TA1538, Metabolic Activation: NONE, Method: STANDARD PLATE) is “inactive; negative”; the mutagenic call (Test System: AMES SALMONELLA TYPHIMURIUM, Strain/Indicator: TA1538, Metabolic Activation: RAT, LIVER, S-9, DELOR 103, Method: STANDARD PLATE) is “inactive; negative”; the mutagenic call (Test System: AMES SALMONELLA TYPHIMURIUM, Strain/Indicator: TA1538, Metabolic Activation: RAT, LIVER, S-9, PHENOBARBITAL, Method: STANDARD PLATE) is “inactive; negative”; the mutagenic call (Test System: CHINESE HAMSTER V-79, Strain/Indicator: V-79/6-THIOGUANINE, Metabolic Activation: NONE, Method: RESPREADING) is “inactive; negative”; the mutagenic call (Test System: CHINESE HAMSTER V-79, Strain/Indicator: V-79/6-THIOGUANINE, Metabolic Activation: RAT, LIVER, S-9, Method: RESPREADING) was “active; positive”.
Regarding `COc1ccnc(=O)[nH]1`, under setting [1], the mutagenic call is “active; positive”.
Consider `CCn1cc(C(=O)O)c(=O)c2ccc(C)nc21`, for which the mutagenic call was “inactive; negative” (End Point: In vitro micronucleus, Test System: WTK-1 human lymphoma cells, Metabolic Activation: None); “inactive; negative” (Test System: AMES SALMONELLA TYPHIMURIUM, Strain/Indicator: TA97, Metabolic Activation: HAMSTER, LIVER, S-9, AROCLOR 1254 (10% OR 30%), Method: PREINCUBATION); “inactive; negative” (Test System: AMES SALMONELLA TYPHIMURIUM, Strain/Indicator: TA97, Metabolic Activation: HAMSTER, LIVER, S-9, AROCLOR 1254 (10 OR 30%), Method: PREINCUBATION); “inactive; negative” (Test System: AMES SALMONELLA TYPHIMURIUM, Strain/Indicator: TA97, Metabolic Activation: NONE, Method: PREINCUBATION); “inactive; negative” (Test System: AMES SALMONELLA TYPHIMURIUM, Strain/Indicator: TA97, Metabolic Activation: RAT, LIVER, S-9, AROCLOR 1254 (10% OR 30%), Method: PREINCUBATION); “inactive; negative” (Test System: AMES SALMONELLA TYPHIMURIUM, Strain/Indicator: TA97, Metabolic Activation: RAT, LIVER, S-9, AROCLOR 1254 (10 OR 30%), Method: PREINCUBATION). For the same compound, the mutagenic call is “inactive; negative” (Test System: AMES SALMONELLA TYPHIMURIUM, Strain/Indicator: TA98, Metabolic Activation: HAMSTER, LIVER, S-9, AROCLOR 1254 (10% OR 30%), Method: PREINCUBATION); “inactive; negative” (Test System: AMES SALMONELLA TYPHIMURIUM, Strain/Indicator: TA98, Metabolic Activation: HAMSTER, LIVER, S-9, AROCLOR 1254 (10 OR 30%), Method: PREINCUBATION); “inactive; negative” (Test System: AMES SALMONELLA TYPHIMURIUM, Strain/Indicator: TA98, Metabolic Activation: NONE, Method: PREINCUBATION); “inactive; negative” (Test System: AMES SALMONELLA TYPHIMURIUM, Strain/Indicator: TA98, Metabolic Activation: RAT, LIVER, S-9, AROCLOR 1254 (10% OR 30%), Method: PREINCUBATION); “inactive; negative” (Test System: AMES SALMONELLA TYPHIMURIUM, Strain/Indicator: TA98, Metabolic Activation: RAT, LIVER, S-9, AROCLOR 1254 (10 OR 30%), Method: PREINCUBATION); “inactive; negative” (Test System: AMES SALMONELLA TYPHIMURIUM, Strain/Indicator: TA100, Metabolic Activation: HAMSTER, LIVER, S-9, AROCLOR 1254 (10%), Method: PREINCUBATION). Moreover, the mutagenic call was “inactive; negative” (Test System: AMES SALMONELLA TYPHIMURIUM, Strain/Indicator: TA100, Metabolic Activation: HAMSTER, LIVER, S-9, AROCLOR 1254 (30%), Method: PREINCUBATION); “inactive; negative” (Test System: AMES SALMONELLA TYPHIMURIUM, Strain/Indicator: TA100, Metabolic Activation: NONE, Method: PREINCUBATION); “inactive; negative” (Test System: AMES SALMONELLA TYPHIMURIUM, Strain/Indicator: TA100, Metabolic Activation: RAT, LIVER, S-9, AROCLOR 1254 (10% OR 30%), Method: PREINCUBATION); “inactive; negative” (Test System: AMES SALMONELLA TYPHIMURIUM, Strain/Indicator: TA100, Metabolic Activation: RAT, LIVER, S-9, AROCLOR 1254 (10 OR 30%), Method: PREINCUBATION); “active; positive” (Test System: AMES SALMONELLA TYPHIMURIUM, Strain/Indicator: TA102, Metabolic Activation: NONE, Method: STANDARD PLATE); “inactive; negative” (Test System: AMES SALMONELLA TYPHIMURIUM, Strain/Indicator: TA1535, Metabolic Activation: HAMSTER, LIVER, S-9, AROCLOR 1254 (10% OR 30%), Method: PREINCUBATION). Besides, the mutagenic call was “inactive; negative” (Test System: AMES SALMONELLA TYPHIMURIUM, Strain/Indicator: TA1535, Metabolic Activation: HAMSTER, LIVER, S-9, AROCLOR 1254 (10 OR 30%), Method: PREINCUBATION); “inactive; negative” (Test System: AMES SALMONELLA TYPHIMURIUM, Strain/Indicator: TA1535, Metabolic Activation: NONE, Method: PREINCUBATION); “inactive; negative” (Test System: AMES SALMONELLA TYPHIMURIUM, Strain/Indicator: TA1535, Metabolic Activation: RAT, LIVER, S-9, AROCLOR 1254 (10% OR 30%), Method: PREINCUBATION); “inactive; negative” (Test System: AMES SALMONELLA TYPHIMURIUM, Strain/Indicator: TA1535, Metabolic Activation: RAT, LIVER, S-9, AROCLOR 1254 (10 OR 30%), Method: PREINCUBATION); “inactive; negative” (Test System: AMES SALMONELLA TYPHIMURIUM, Strain/Indicator: TA2638, Metabolic Activation: NONE, Method: STANDARD PLATE); “inactive; negative” (Test System: CHINESE HAMSTER V-79, Strain/Indicator: V-79 (HPRT)/6-THIOGUANINE, Metabolic Activation: NONE). Moreover, the mutagenic call reads like this: (Test System: E. COLI, Strain/Indicator: WP2 (PKM101), Metabolic Activation: NONE, Method: STANDARD PLATE) “active; positive”; (Test System: E. COLI, Strain/Indicator: WP2 UVRA (PKM101), Metabolic Activation: NONE, Method: STANDARD PLATE) “active; positive”; (Test System: MOUSE LYMPHOMA, Strain/Indicator: L5178Y (HPRT)/6-THIOGUANINE, Metabolic Activation: NONE, Method: FLUCTUATION TEST) “inactive; negative”; (Test System: MOUSE LYMPHOMA, Strain/Indicator: L5178Y (TK+/TK-), Metabolic Activation: NONE, Method: FLUCTUATION TEST) “inactive; negative”; (Test System: MOUSE LYMPHOMA, Strain/Indicator: L5178Y (TK+/TK-), Metabolic Activation: NONE, Method: SUSPENSION/PLATE) “inactive; negative”; (Test System: MOUSE LYMPHOMA, Strain/Indicator: L5178Y (TK+/TK-), Metabolic Activation: RAT, LIVER, S-9, AROCLOR 1254, Method: SUSPENSION/PLATE) “inactive; negative”.
